According to paper PMC8125885, “6,6′-Dihydroxythiobinupharidine (DTBN) Purified from Nuphar lutea Leaves Is an Inhibitor of Protein Kinase C Catalytic Activity” (Molecules, 2021):
Where two headings read alike, the source gives them in different places.

How the values were obtained:
PKCα = molecular target: T1, PKCα (Homo sapiens, UniProt P17252); experiment: In vitro kinase assay (32P-MBP phosphorylation by immunoprecipitated HA-tagged PKC); assay type: biochemical; conditions: MBP substrate, 100 μM cold ATP, 30 min at 32 °C
T1 construct: made in house; host or cells: HEK-293T
Method: (§1) To test the effect of DTBN on the activity of PKC isoforms, in vitro kinase assays were performed in a dose–response experiment, and results are presented in Figure 1. At these concentrations, the kinase activities of PKCs were inhibited by DTBN in a dose-dependent manner, having the most profound effect on conventional PKCα and PKCγ as compared to other PKCs tested (Figure 1 and Table 1). […] Immunoblotting was performed with antibodies against HA-tagged different PKCs and against Myelin Basic Protein (MBP) as a loading control.
(§2) Figure 1 DTBN downregulates PKC catalytic activity in a concentration-dependent manner. In vitro kinase assays of indicated PKC isoforms were performed, as described in Materials and Methods, utilizing MBP as a substrate. Before the initiation of the assay, DTBN was added to the samples at several concentrations. Following the termination of the assay, sample proteins were then resolved by SDS-PAGE and developed by autoradiography (a). p^32-MBP and MBP protein band signals were quantified using Image Lab software, and the relative amounts of p^32-MBP/MBP were presented in a line graph (b). Immunoblotting against HA and MBP to detect overexpressed PKC expression, and MBP, respectively, monitor equal loading of samples. Data are representative of two independent experiments. Molecular weight markers (in kDa) are indicated on the left, and arrows mark the positions of the indicated protein bands. IgH, Ig heavy chain.
(§3) PKC kinase assays were performed, as described, using myelin-basic protein (5 μg/100 μL) (MBP, #M1891, Sigma-Aldrich, St. Louis, MO, USA) as a substrate. Whole-cell lysates (75 μg per sample) of HEK-293T cells, each overexpressing different HA-tagged PKCs, were subjected to immunoprecipitation using protein A/G-agarose bead-immobilized anti-HA mAbs (#MMS-101R, BioLegend, San Diego, CA, USA). The immunoprecipitates were washed four times with Triton X-100-containing lysis buffer, and lastly with PKC kinase assay buffer (20 mM HEPES, pH 7.5, 10 mM MgCl2, and 0.1 mM EGTA). The immunoprecipitates were then equally divided to Eppendorf safe-lock tubes, followed by the addition of indicated concentrations of DTBN (μg/mL) and subsequent incubation in a kinase reaction mixture (10 mM ΜgCl2, 20 mM HEPES, 0.1 mM EGTA, 50 μg/mL phosphatidylserine, and 5μCi γ-32P-ATP (PerkinElmer, Waltham, MA, USA), also including 100 μM cold ATP and 1.5 mM CaCl2 (for conventional PKCs), and incubated for 30 min at 32 °C with gentle shaking. Reactions were terminated by the addition of 5× sample buffer and boiling for 5 min, followed by SDS-PAGE (10% acrylamide gels) under reducing conditions. Samples were then transferred to nitrocellulose membranes (Sigma-Aldrich) that were developed by immunoblotting and autoradiography. After the detection of the phosphorylated substrate (^32P-MBP) by autoradiography, the membranes were probed with anti-HA and anti-MBP mAbs (#SMI-99P, BioLegend, San Diego, CA, USA), (loading controls). ^32P-MBP and MBP protein bands were quantified using Image Lab software (5.2.1).

PKCγ = molecular target: T2, PKCγ (Homo sapiens, UniProt P05129); experiment: as above; assay type: biochemical; conditions: MBP substrate, 100 μM cold ATP, 30 min at 32 °C
T2 construct: made in house; host or cells: HEK-293T
Method: as §1, §2, §3

PKCδ = molecular target: T3, PKCδ (Homo sapiens, UniProt Q05655); experiment: as above; assay type: biochemical; conditions: MBP substrate, 100 μM cold ATP, 30 min at 32 °C
T3 construct: made in house; host or cells: HEK-293T
Method: as §1, §2, §3

PKCε = molecular target: T4, PKCε (Homo sapiens, UniProt Q02156); experiment: as above; assay type: biochemical; conditions: MBP substrate, 100 μM cold ATP, 30 min at 32 °C
T4 construct: made in house; host or cells: HEK-293T
T4 sequence (Q02156 1-737): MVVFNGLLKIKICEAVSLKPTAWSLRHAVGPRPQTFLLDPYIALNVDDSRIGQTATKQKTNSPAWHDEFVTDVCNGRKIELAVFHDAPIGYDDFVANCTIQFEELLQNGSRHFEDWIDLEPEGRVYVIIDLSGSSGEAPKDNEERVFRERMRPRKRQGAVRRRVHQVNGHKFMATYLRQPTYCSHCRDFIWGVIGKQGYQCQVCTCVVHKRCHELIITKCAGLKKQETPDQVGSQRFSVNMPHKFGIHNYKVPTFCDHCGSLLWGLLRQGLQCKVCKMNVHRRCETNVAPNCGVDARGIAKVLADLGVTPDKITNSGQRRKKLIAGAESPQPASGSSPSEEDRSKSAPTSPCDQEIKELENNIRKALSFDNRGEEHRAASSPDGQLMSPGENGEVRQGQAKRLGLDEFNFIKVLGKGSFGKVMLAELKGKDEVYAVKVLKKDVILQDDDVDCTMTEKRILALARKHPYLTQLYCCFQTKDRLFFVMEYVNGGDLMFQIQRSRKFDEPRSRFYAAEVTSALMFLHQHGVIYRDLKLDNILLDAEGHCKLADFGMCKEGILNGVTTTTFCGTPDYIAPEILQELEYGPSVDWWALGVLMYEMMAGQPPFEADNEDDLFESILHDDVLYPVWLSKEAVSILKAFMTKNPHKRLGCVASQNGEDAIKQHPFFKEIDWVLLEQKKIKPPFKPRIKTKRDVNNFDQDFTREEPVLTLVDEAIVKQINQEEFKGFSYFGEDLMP
Method: as §1, §2, §3

PKCζ = molecular target: T5, PKCζ (Homo sapiens, UniProt Q05513); experiment: as above; assay type: biochemical; conditions: MBP substrate, 100 μM cold ATP, 30 min at 32 °C
T5 construct: made in house; host or cells: HEK-293T
T5 sequence (Q05513 1-592): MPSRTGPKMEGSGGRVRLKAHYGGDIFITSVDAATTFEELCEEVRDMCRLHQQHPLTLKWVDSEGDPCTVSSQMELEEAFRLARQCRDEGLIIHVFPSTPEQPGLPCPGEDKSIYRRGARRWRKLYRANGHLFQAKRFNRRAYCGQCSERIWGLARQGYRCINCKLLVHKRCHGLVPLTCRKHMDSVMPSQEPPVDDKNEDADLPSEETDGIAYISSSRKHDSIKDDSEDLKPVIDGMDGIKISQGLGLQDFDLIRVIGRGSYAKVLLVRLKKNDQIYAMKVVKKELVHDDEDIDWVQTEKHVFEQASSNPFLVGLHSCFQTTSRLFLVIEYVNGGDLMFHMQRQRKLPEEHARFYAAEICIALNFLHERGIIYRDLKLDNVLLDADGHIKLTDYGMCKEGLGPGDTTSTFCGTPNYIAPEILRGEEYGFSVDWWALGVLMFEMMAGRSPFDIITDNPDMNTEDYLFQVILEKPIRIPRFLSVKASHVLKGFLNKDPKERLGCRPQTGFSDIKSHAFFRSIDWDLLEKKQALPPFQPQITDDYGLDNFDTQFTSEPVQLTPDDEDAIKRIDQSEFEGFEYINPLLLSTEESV
Method: as §1, §2, §3

PKCη [1] = molecular target: T6, PKCη (Homo sapiens, UniProt P24723); experiment: as above; assay type: biochemical; conditions: MBP substrate, 100 μM cold ATP, 30 min at 32 °C
Method: as §1, §2, §3

PKCη [2] = molecular target: T6, PKCη; parameters: method as in PMID 22078216; conditions: co-crystallized inhibitor at PKCη; cited from earlier work
[3] = read-out: IC50 Values (μg/mL) (converted)

T6 sequence (P24723 whole entry): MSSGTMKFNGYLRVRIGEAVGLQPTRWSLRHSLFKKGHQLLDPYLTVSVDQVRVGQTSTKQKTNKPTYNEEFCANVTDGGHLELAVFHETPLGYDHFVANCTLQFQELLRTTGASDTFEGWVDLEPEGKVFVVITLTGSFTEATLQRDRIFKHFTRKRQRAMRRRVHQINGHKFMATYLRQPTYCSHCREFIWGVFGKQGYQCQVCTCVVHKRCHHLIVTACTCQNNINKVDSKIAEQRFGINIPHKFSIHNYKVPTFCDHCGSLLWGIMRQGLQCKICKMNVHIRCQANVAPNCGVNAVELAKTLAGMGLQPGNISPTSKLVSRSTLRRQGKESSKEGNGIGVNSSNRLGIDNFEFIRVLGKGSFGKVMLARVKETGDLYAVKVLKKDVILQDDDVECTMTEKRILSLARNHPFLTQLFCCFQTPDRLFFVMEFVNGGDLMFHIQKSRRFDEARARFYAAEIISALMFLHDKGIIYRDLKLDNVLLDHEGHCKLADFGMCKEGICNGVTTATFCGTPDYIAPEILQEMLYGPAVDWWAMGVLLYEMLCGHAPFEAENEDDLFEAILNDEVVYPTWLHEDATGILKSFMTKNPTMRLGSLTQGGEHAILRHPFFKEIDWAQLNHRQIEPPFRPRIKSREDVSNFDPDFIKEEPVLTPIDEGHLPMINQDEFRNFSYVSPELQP
T3 sequence (Q05655 whole entry): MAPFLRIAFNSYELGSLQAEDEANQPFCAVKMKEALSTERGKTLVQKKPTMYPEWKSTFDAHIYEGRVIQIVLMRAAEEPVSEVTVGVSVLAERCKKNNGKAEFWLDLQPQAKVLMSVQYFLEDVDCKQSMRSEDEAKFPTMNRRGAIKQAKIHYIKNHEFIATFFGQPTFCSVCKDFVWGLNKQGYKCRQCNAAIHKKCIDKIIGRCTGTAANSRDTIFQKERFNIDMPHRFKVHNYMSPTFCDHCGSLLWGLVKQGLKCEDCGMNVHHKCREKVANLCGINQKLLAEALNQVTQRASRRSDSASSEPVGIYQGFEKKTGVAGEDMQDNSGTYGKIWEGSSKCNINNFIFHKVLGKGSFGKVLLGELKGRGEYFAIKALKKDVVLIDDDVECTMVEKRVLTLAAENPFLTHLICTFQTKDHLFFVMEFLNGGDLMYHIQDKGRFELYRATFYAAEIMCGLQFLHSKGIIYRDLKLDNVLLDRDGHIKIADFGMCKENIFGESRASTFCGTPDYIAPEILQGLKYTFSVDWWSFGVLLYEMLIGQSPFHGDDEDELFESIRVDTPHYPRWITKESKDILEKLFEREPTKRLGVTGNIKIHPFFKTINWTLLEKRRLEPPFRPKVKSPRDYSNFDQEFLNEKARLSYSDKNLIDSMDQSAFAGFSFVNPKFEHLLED

Compound	IC50 (PKCα; read-out: IC50 Values) [µM]	IC50 (PKCα; [3]) [µM]	IC50 (PKCγ; read-out: IC50 Values) [µM]	IC50 (PKCγ; [3]) [µM]	IC50 (PKCδ; read-out: IC50 Values) [µM]	IC50 (PKCδ; read-out: IC50 Values (μg/mL)) [µM]	IC50 (PKCε; read-out: IC50 Values) [µM]	IC50 (PKCε; [3]) [µM]	IC50 (PKCζ; read-out: IC50 Values) [µM]	IC50 (PKCζ; [3]) [µM]	IC50 (PKCη [1]; read-out: IC50 Values) [µM]	IC50 (PKCη [1]; read-out: IC50 Values (μg/mL)) [µM]	IC50 (PKCη [2]) [µM]
CC1CCC(c2ccoc2)N2C1CCC1(CSC3(CCC4C(C)CCC(c5ccoc5)N4C3O)C1)C2O (stereo not shown) [DTBN, 6,6′-dihydroxythiobinupharidine]	0.174	0.175	0.168	0.169	> 19	> 19	14.2	14.2	18.6	18.6	> 19	> 19	
c1cc2cnccc2cn1 [2,6-Naphthyridine]													0.009
